Experimental data taken from patent US20220184034A1, “METHODS FOR TREATING CUTANEOUS METASTATIC CANCERS” (Adgero Biopharmaceuticals Holdings, Inc., priority 2020, published 2022).

How the values were obtained:
CMBC lesions [1] = assay: Four phase 2/3 studies of SnET2 PDT: lesion treatment response; format: in vivo, patients; details: 1.2 mg/kg; for Responders / Response Rate of Evaluable Lesions: 200 J/cm^2, ~24 h, lesions larger than 1 cm; for lesion response rate: 200 J/cm^2
Experimental: (§1) A factor that impacts clinical outcome is the time delay required for post-treatment effects to resolve. This factor is observed in the results from four subsequent phase 2/3 studies of CMBC lesions using a fixed drug dose of 1.2 mg/kg and a fixed light dose of 200 J/cm^2 administered at approximately 24 hours post-infusion. In these studies lesions were first scored for lesion reaction and then scored for lesion treatment response after the lesion reaction had resolved. In the case of lesion reaction scoring, the reaction was first assessed by the investigator at approximately 4-week intervals and assigned a Reaction Score according to the following defined terms: • 0=No erythema, edema or residual eschar • 1=Mild (faint) erythema and/or slight edema present • 2=Moderate erythema and edema present • 3=Severe erythema and edema present • 4=Sloughing, ulceration, and/or eschar present • 5=Eschar requiring debridement
(§2) Once a lesion scored a Reaction Score of 0 or 1 it was deemed suitably healed for evaluation, at which time its treatment response was quantified by visual measurement of the two longest dimensions. In those cases where the patient left the study before a reaction score of 0-1 was reached, those lesions were classified as not evaluable.
(§3) An analysis conducted of the median time to lesion evaluation (time to reach a reaction score of 0 or 1) in these same four phase 2/3 CMBC trials indicates the time delay for post-treatment effects to resolve was closely associated with the acute (week 1-2 post-treatment) lesion reaction score, with higher acute reaction scores being associated with a longer time to lesion evaluation, consistent with a more severe treatment reaction requiring a longer time to resolve. […] Because larger lesions are most likely to be clinically relevant, this table only includes those lesions from the same four CMBC phase 2/3 trials that had baseline dimensions larger than 1 cm.

CMBC lesions [2] = assay: Four phase 2/3 studies of SnET2 PDT: lesion reaction score and time to lesion evaluation; format: in vivo, patients; details: 1.2 mg/kg; for Median Evaluable Week / Total with Max Reaction During Trial ≥4: 200 J/cm^2, ~24 h, lesions larger than 1 cm; for median time to evaluation: 200 J/cm^2
Experimental: Subsequent studies were conducted with dose parameters of 1.2 mg/kg of photosensitizer, 200 J/cm^2 of light, and 24 hours post administration as a treatment timepoint.
as §1, §2, §3

[3] = acute lesion reaction score 0-1
[4] = acute lesion reaction score 2-3
[5] = acute lesion reaction score 4-5

tin ethyl etiopurpurin [SnET2]
Responders (CMBC lesions [1]; [3]): 48
Response Rate of Evaluable Lesions (CMBC lesions [1]; [3]): 63%
Responders (CMBC lesions [1]; [4]): 168
Response Rate of Evaluable Lesions (CMBC lesions [1]; [4]): 81%
Responders (CMBC lesions [1]; [5]): 179
Response Rate of Evaluable Lesions (CMBC lesions [1]; [5]): 88%
lesion response rate (CMBC lesions [1]; acute lesion reactions of 2-3): 81%
lesion response rate (CMBC lesions [1]; acute reactions of 4-5): 88%
healing following treatment (CMBC lesions [2]; 200 J/cm^2, 24 hours post administration): slow healing following treatment was observed
Median Evaluable Week (CMBC lesions [2]; [3]): 1 Week
Total with Max Reaction During Trial ≥4 (CMBC lesions [2]; [3]): 14
Median Evaluable Week (CMBC lesions [2]; [4]): 6 Week
Total with Max Reaction During Trial ≥4 (CMBC lesions [2]; [4]): 165
Median Evaluable Week (CMBC lesions [2]; [5]): 12 Week
Total with Max Reaction During Trial ≥4 (CMBC lesions [2]; [5]): 496
median time to evaluation (CMBC lesions [2]; acute lesion reactions of 2-3): 6 weeks
median time to evaluation (CMBC lesions [2]; acute reactions of 4-5 (eschar or ulceration)): 12 weeks
